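How tested: cells in 96-well plates exposed to compound for 48 hours at five concentrations. GI50: concentration for 50% inhibition of growth.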 Activity calls are given as the source filed them. Cut-off read from the data, not from the text of the source: active = GI50 up to about 1.1 µM and inactive = higher.
Key:
Test in all cases: inhibition of tumour cell growth, NCI panel, 48 h
NCI/ADR-RES = tested on: NCI/ADR-RES
M14 = tested on: M14
MCF7 = tested on: MCF7
MDA-MB-231 = tested on: MDA-MB-231
OVCAR-4 = tested on: OVCAR-4
SK-OV-3 = tested on: SK-OV-3
BT-549 = tested on: BT-549
U-251 = tested on: U-251
HT-29 = tested on: HT-29
SN12C = tested on: SN12C
SK-MEL-5 = tested on: SK-MEL-5
HOP-92 = tested on: HOP-92
Malme-3M = tested on: Malme-3M
OVCAR-5 = tested on: OVCAR-5
MOLT-4 = tested on: MOLT-4
UO-31 = tested on: UO-31
T47D = tested on: T47D
DU-145 = tested on: DU-145
SF-268 = tested on: SF-268
SR = tested on: SR
SK-MEL-2 = tested on: SK-MEL-2
HCT-116 = tested on: HCT-116
SF-539 = tested on: SF-539
RXF 393 = tested on: RXF 393
NCI-H522 = tested on: NCI-H522
IGROV-1 = tested on: IGROV-1
MDA-MB-435 = tested on: MDA-MB-435
A498 = tested on: A498
NCI-H460 = tested on: NCI-H460
HOP-62 = tested on: HOP-62
SW-620 = tested on: SW-620
CAKI-1 = tested on: CAKI-1
SF-295 = tested on: SF-295
SNB-75 = tested on: SNB-75
NCI-H226 = tested on: NCI-H226
TK-10 = tested on: TK-10
786-0 = tested on: 786-0
KM12 = tested on: KM12
COLO 205 = tested on: COLO 205
NCI-H23 = tested on: NCI-H23
A549 = tested on: A549
SNB-19 = tested on: SNB-19
K562 = tested on: K562
HCC 2998 = tested on: HCC 2998
MDA-N = tested on: MDA-N
UACC-62 = tested on: UACC-62
HCT-15 = tested on: HCT-15
SK-MEL-28 = tested on: SK-MEL-28
OVCAR-3 = tested on: OVCAR-3
ACHN = tested on: ACHN
EKVX = tested on: EKVX
LOX IMVI = tested on: LOX IMVI
OVCAR-8 = tested on: OVCAR-8
Hs-578T = tested on: Hs-578T
UACC-257 = tested on: UACC-257
RPMI-8226 = tested on: RPMI-8226
PC-3 = tested on: PC-3
HL-60 = tested on: HL-60
CCRF-CEM = tested on: CCRF-CEM

Measured: GI50

COc1c(-c2nc3ccc(N4CCN(C)CC4)nc3[nH]2)cc(OC)c2[nH]c(CO)nc12
> 100 µM: HCT-15
inactive: NCI/ADR-RES > 100 µM | M14 > 100 µM | MCF7 11.2 µM | MDA-MB-231 44.1 µM | OVCAR-4 70 µM | SK-OV-3 > 100 µM | BT-549 > 100 µM | U-251 29.6 µM | HT-29 > 100 µM | SN12C 53 µM | SK-MEL-5 > 100 µM | HOP-92 > 100 µM | Malme-3M > 100 µM | OVCAR-5 > 100 µM | MOLT-4 52.2 µM | UO-31 > 100 µM | T47D 37.1 µM | DU-145 > 100 µM | SF-268 92.3 µM | SR > 100 µM | SK-MEL-2 32 µM | HCT-116 54.7 µM | SF-539 22.5 µM | RXF 393 > 100 µM | NCI-H522 52.4 µM | IGROV-1 > 100 µM | MDA-MB-435 56.8 µM | A498 > 100 µM | NCI-H460 > 100 µM | HOP-62 99.5 µM | SW-620 > 100 µM | CAKI-1 > 100 µM | SF-295 > 100 µM | SNB-75 95.5 µM | NCI-H226 36.1 µM | TK-10 > 100 µM | 786-0 69.3 µM | KM12 93.5 µM | COLO 205 > 100 µM | NCI-H23 > 100 µM | A549 > 100 µM | SNB-19 42.6 µM | K562 58.1 µM | HCC 2998 38.2 µM | MDA-N > 100 µM | UACC-62 82.2 µM | SK-MEL-28 > 100 µM | OVCAR-3 39.3 µM | ACHN > 100 µM | EKVX > 100 µM | LOX IMVI 85.5 µM | OVCAR-8 > 100 µM | Hs-578T > 100 µM | UACC-257 > 100 µM

CC[C@H](C)[C@H](NC(=O)[C@H](Cc1ccc(O)cc1)NCC(F)(F)F)C(=O)OC(C)(C)C
10.5 µM: HCT-15
inactive: NCI/ADR-RES 11.7 µM | M14 7.03 µM | MCF7 7.74 µM | MDA-MB-231 7.28 µM | RPMI-8226 6.64 µM | OVCAR-4 5.64 µM | SK-OV-3 8.11 µM | BT-549 10.8 µM | U-251 6.85 µM | HT-29 7.6 µM | SN12C 8.81 µM | SK-MEL-5 7.41 µM | HOP-92 8.99 µM | Malme-3M 10.2 µM | OVCAR-5 8.63 µM | MOLT-4 6.35 µM | UO-31 7.64 µM | T47D 4.51 µM | SF-268 9.71 µM | SR 5.97 µM | SK-MEL-2 6.53 µM | HCT-116 7.18 µM | SF-539 9.71 µM | RXF 393 7.16 µM | NCI-H522 7.31 µM | IGROV-1 7.5 µM | MDA-MB-435 7 µM | A498 7.31 µM | NCI-H460 6.22 µM | HOP-62 9.25 µM | SW-620 9.82 µM | CAKI-1 7.01 µM | SF-295 6.9 µM | SNB-75 7.89 µM | NCI-H226 9.06 µM | TK-10 8.09 µM | 786-0 8.15 µM | KM12 7.78 µM | COLO 205 8.05 µM | NCI-H23 8.59 µM | A549 5.41 µM | SNB-19 7.96 µM | K562 8.61 µM | HCC 2998 7.29 µM | MDA-N 8.32 µM | UACC-62 5.69 µM | SK-MEL-28 9.38 µM | ACHN 7.33 µM | EKVX 6.87 µM | LOX IMVI 8.67 µM | OVCAR-8 12.4 µM | Hs-578T 10.3 µM | UACC-257 6.82 µM | PC-3 6.43 µM

O=C(CC(=O)Nc1ccccc1)N/N=C/c1cc(/N=N/c2ccc(Br)cc2)ccc1O
inactive: NCI/ADR-RES 2.88 µM | M14 6.37 µM | MCF7 2.99 µM | MDA-MB-231 3.26 µM | RPMI-8226 3.68 µM | OVCAR-4 2.09 µM | SK-OV-3 8.87 µM | BT-549 > 10 µM | U-251 3.61 µM | SN12C 8.22 µM | SK-MEL-5 8.79 µM | HOP-92 > 10 µM | Malme-3M 5.93 µM | MOLT-4 1.35 µM | UO-31 2.42 µM | T47D 4.38 µM | DU-145 5.16 µM | SF-268 4.5 µM | SR 1.39 µM | SF-539 4.05 µM | HL-60 2.44 µM | IGROV-1 4.21 µM | NCI-H460 3.28 µM | HOP-62 5.3 µM | SW-620 4.84 µM | CAKI-1 3.61 µM | SNB-75 > 10 µM | TK-10 4.2 µM | 786-0 4 µM | KM12 3.58 µM | COLO 205 3.93 µM | NCI-H23 2.6 µM | A549 > 10 µM | K562 2.96 µM | HCC 2998 3.25 µM | MDA-N 3.72 µM | UACC-62 2.28 µM | SK-MEL-28 4.41 µM | CCRF-CEM 1.54 µM | EKVX 3.97 µM | LOX IMVI 4.28 µM | OVCAR-8 3.93 µM | Hs-578T > 10 µM | UACC-257 2.08 µM
3.33 µM: HCT-15

O=C(O)c1ccccc1/C=N/N=C1NCCCCN1
> 100 µM: HCT-15
inactive: NCI/ADR-RES > 100 µM | M14 > 100 µM | MCF7 > 100 µM | MDA-MB-231 > 100 µM | RPMI-8226 > 100 µM | OVCAR-4 > 100 µM | SK-OV-3 > 100 µM | BT-549 > 100 µM | U-251 > 100 µM | HT-29 > 100 µM | SK-MEL-5 > 100 µM | HOP-92 > 100 µM | Malme-3M > 100 µM | OVCAR-5 > 100 µM | MOLT-4 > 100 µM | UO-31 > 100 µM | T47D > 100 µM | SF-268 > 100 µM | SR > 100 µM | SK-MEL-2 > 100 µM | HCT-116 > 100 µM | SF-539 > 100 µM | RXF 393 > 100 µM | HL-60 > 100 µM | NCI-H522 90.8 µM | IGROV-1 > 100 µM | MDA-MB-435 > 100 µM | A498 > 100 µM | NCI-H460 > 100 µM | HOP-62 > 100 µM | SW-620 > 100 µM | SF-295 > 100 µM | SNB-75 > 100 µM | NCI-H226 > 100 µM | TK-10 > 100 µM | 786-0 > 100 µM | KM12 > 100 µM | COLO 205 > 100 µM | NCI-H23 > 100 µM | A549 > 100 µM | SNB-19 > 100 µM | K562 > 100 µM | HCC 2998 > 100 µM | MDA-N > 100 µM | UACC-62 > 100 µM | SK-MEL-28 > 100 µM | CCRF-CEM > 100 µM | OVCAR-3 > 100 µM | ACHN > 100 µM | EKVX > 100 µM | LOX IMVI > 100 µM | OVCAR-8 > 100 µM | Hs-578T > 100 µM | UACC-257 > 100 µM | PC-3 > 100 µM

Cc1ccc(Nc2nc(=O)[nH]c(=O)[nH]2)cc1N=[N+]=[N-]
inactive: NCI/ADR-RES > 100 µM | M14 > 100 µM | MCF7 > 100 µM | MDA-MB-231 > 100 µM | RPMI-8226 > 100 µM | OVCAR-4 > 100 µM | SK-OV-3 > 100 µM | BT-549 > 100 µM | HT-29 > 100 µM | SN12C > 100 µM | SK-MEL-5 > 100 µM | HOP-92 > 100 µM | Malme-3M > 100 µM | OVCAR-5 > 100 µM | MOLT-4 > 100 µM | UO-31 > 100 µM | T47D > 100 µM | DU-145 > 100 µM | SF-268 > 100 µM | SR > 100 µM | SK-MEL-2 > 100 µM | HCT-116 > 100 µM | SF-539 > 100 µM | RXF 393 > 100 µM | HL-60 > 100 µM | NCI-H522 > 100 µM | IGROV-1 > 100 µM | MDA-MB-435 > 100 µM | A498 > 100 µM | HOP-62 > 100 µM | SW-620 > 100 µM | CAKI-1 > 100 µM | SF-295 > 100 µM | SNB-75 > 100 µM | NCI-H226 > 100 µM | TK-10 > 100 µM | 786-0 > 100 µM | KM12 > 100 µM | COLO 205 > 100 µM | NCI-H23 > 100 µM | A549 > 100 µM | SNB-19 > 100 µM | K562 > 100 µM | HCC 2998 > 100 µM | MDA-N > 100 µM | UACC-62 > 100 µM | CCRF-CEM > 100 µM | OVCAR-3 > 100 µM | ACHN > 100 µM | EKVX > 100 µM | LOX IMVI > 100 µM | OVCAR-8 > 100 µM | Hs-578T > 100 µM | UACC-257 > 100 µM
> 100 µM: HCT-15

From ChEMBL document CHEMBL1201862, “PubChem BioAssay data set” (2004)
